# Assay results published in a melting point compilation (Tetko et al.).
row,melting point [°C],SMILES
1,131 to 133,Cc1c(N)cccc1-c1nc2cc(F)ccc2n1C1CC1
2,209 to 211,O=C(O)c1cn(-c2ccccc2)nc1-c1ccc(Cl)s1
3,74 to 76,CCOC(=O)c1cc(CC)sc1NC(=O)CCl
4,179 to 181,CCOC(=O)Cc1nc2ccccc2[nH]1
5,186 to 188,Cn1nc(I)c2ncccc21
6,170 to 172,CC1(c2ccccc2)NC(=O)N(CC(=O)O)C1=O (configuration not stated)
7,95 to 97,CC(C)(C)OC(=O)N1CCC(=O)C(Br)C1 (configuration not stated)
8,67 to 69,CC1(C)CC(=O)c2cncnc2C1
9,144 to 146,Cc1cc(Br)ccc1NS(C)(=O)=O
10,203 to 205,CC(=O)c1ccc(-n2c(C)c[nH]c2=O)cc1
11,57 to 59,CCOC(=O)c1cc(CC)sc1NC(=O)C(C)Cl (configuration not stated)
12,165 to 167,O=C(CCl)N1N=C(c2cc3ccccc3o2)CC1c1ccco1 (configuration not stated)
13,99 to 101,Cc1ccc(NS(=O)(=O)c2ccc(Cl)c([N+](=O)[O-])c2)c(C)c1
14,123 to 125,O=C1CCCC(C(F)(F)F)N1 (configuration not stated)
15,162 to 164,Cn1cc([N+](=O)[O-])c(C(=O)O)n1
16,169 to 171,O=C1Nc2ccccc2N2CCC12 (configuration not stated)
17,168 to 170,Cc1cc(Cl)ncc1O
18,223 to 225,O=C(O)c1ccc(F)c(S(=O)(=O)N2CCCC2)c1
19,239 to 241,Cc1noc2nc(-c3cccc(Cl)c3)cc(C(=O)O)c12
20,197 to 199,Cc1nn(C)c2c1NC(=O)CS2
21,144 to 146,CCc1c(C(=O)O)cnn1C
22,137 to 139,Cc1cc2ncc(Br)cn2n1
23,106 to 108,Nc1cccc(N2CCCC2=O)c1

row,melting point [°C],SMILES
1,138 to 140,N#Cc1ccc(N2C(=O)C=CC2=O)cc1
2,225 to 227,O=C1CSC(c2ccc(F)cc2)N1C1CC1 (configuration not stated)
3,92 to 94,CCn1cc(N2C(=O)C=CC2=O)cn1
4,215 to 217,COC(=O)Nc1snc(C)c1C(=O)O
5,114 to 116,Cc1ccc(F)c(N)c1C(=O)O
6,108 to 110,O=c1nc(Cl)sc2ccccc12
7,190 to 192,CCOc1ccc(C2(C)NC(=O)NC2=O)cc1 (configuration not stated)
8,117 to 119,Cc1c(N)cccc1S(C)(=O)=O
9,77 to 79,CC(N)c1nc(-c2ccc(Br)cc2)cs1 (configuration not stated)
10,247 to 249,Cc1cnc(O)c([N+](=O)[O-])c1
11,92 to 94,CCNc1nc(C(=O)OCC)cs1
12,88 to 90,COC(=O)c1ccsc1N1CCC(N)C1=O (configuration not stated)
13,111 to 113,CC(C)C(Br)C(=O)N1CCc2ccccc21 (configuration not stated)
14,83 to 85,Cc1c(S(=O)(=O)Cl)sc2cc(Cl)ccc12
15,299 to 301,O=C(O)c1ccc(-c2ccco2)[nH]c1=O
16,237 to 239,Fc1ccc(-n2c(S)nc3ccccc32)cc1
17,196 to 198,Cn1nc(C(=O)O)cc1C1CC1
18,163 to 165,Cc1nc(NN)c2cc(-c3ccccc3)sc2n1
19,69 to 71,Cc1cc(N)ccc1C(=O)OC(C)(C)C
20,88 to 90,CC(Cl)C(=O)Nc1ccc(Cl)cn1 (configuration not stated)
21,148 to 152,Cc1ccc(S(=O)(=O)N2CCOCC2)cc1C(=O)O
22,218 to 220,O=C(O)c1cnc2ccc(Br)cn2c1=O
23,208 to 210,Cc1ccc(C(=O)Nc2ccc(O)cc2)cc1

# Second part, the molecule before the results:
row,SMILES,melting point [°C]
1,NNc1ccc(S(=O)(=O)Nc2ccc(Cl)cc2)cc1[N+](=O)[O-],187 to 189
2,CC(C)(C)OC(=O)NC(C(N)=NO)c1ccccc1 (configuration not stated),177 to 179
3,CC(Oc1ccc(C(=O)O)cn1)c1ccccc1 (configuration not stated),113 to 115
4,O=C(O)CN(Cc1ccccc1)S(=O)(=O)c1ccc(Cl)cc1,149 to 151
5,O=S(=O)(O)c1ccnc2ccccc12,317 to 319
6,CS(=O)(=O)c1cccc(C(=O)c2ccc(F)cc2)c1,66 to 68
7,OCC1CNc2ccccc2C1 (configuration not stated),79 to 81
8,N#CCCn1cc(C(=O)O)c(-c2ccc([N+](=O)[O-])cc2)n1,220 to 222
9,O=C(O)c1ccc(F)cc1-c1ccc(Cl)c(Cl)c1,179 to 181
10,Brc1cccc2cnoc12,79 to 81
11,O=C(O)CNC(=O)c1ccc(Br)o1,91 to 93
12,N#Cc1cc(N)ncc1Br,184 to 186
13,Cc1nc(C)c(CCl)s1,62 to 64
14,CC(C)(C)OC(=O)NC1CC(O)C1 (configuration not stated),108 to 110
15,Nc1cc(C2CCOCC2)no1,159 to 161
16,O=C(CBr)CS(=O)(=O)c1ccccc1,96 to 98
17,NS(=O)(=O)CCSc1ccccc1,106 to 108
18,NNC(=O)c1ccc(F)cc1Br,151 to 153
19,ClCc1csc(-c2ccccn2)n1,85 to 87

row,SMILES,melting point [°C]
1,O=C(O)C1CC=CCC1C(=O)N1CCCC1 (configuration not stated),116 to 118
2,O=C(C1CCCCC1)N1CCNCC1,86 to 88
3,CCOc1ccc(S(N)(=O)=O)cn1,133 to 135
4,CCOc1ccc(C(=O)NCC(=O)O)cc1,154 to 156
5,O=C(O)c1csc(-c2ccccc2)n1,160 to 161
6,O=C(O)c1ccc(NS(=O)(=O)c2ccc(Br)s2)cc1,254 to 256
7,COc1ccc(C(=O)O)c(Cl)c1,209 to 211
8,CS(=O)(=O)c1ccc(O)c(N)c1,155 to 157
9,Clc1ccc2cccnc2c1CBr,119 to 121
10,CN(CC(=O)O)C(=O)Nc1cccc2ccccc12,126 to 128
11,CCS(=O)(=O)Nc1ccccc1F,68 to 70
12,C1=CNc2cccc(=C3N=c4ccncc4=N3)c2=C1,316 to 318
13,NS(=O)(=O)c1ccc(OCCC(=O)O)cc1,140 to 142
14,O=[N+]([O-])c1ccc2nc(Cl)ccc2c1,224 to 226
15,Nc1cc(F)cc(S(N)(=O)=O)c1,153 to 155
16,Cc1ccc(N)c(OCCN(C)C)c1,51 to 53
17,CCC(O)c1ccc(O)cc1 (configuration not stated),81 to 83
18,NC(=O)c1ccc(N)nn1,256 to 258
19,CC(C)(C)OC(=O)NC1(C(N)=NO)CCCC1,168 to 170

row,SMILES,melting point [°C]
1,NC(=O)c1sc2cc(Cl)ccc2c1Cl,269 to 271
2,O=S1(=O)CCCC(O)C1 (configuration not stated),99 to 101
3,Brc1ccc2[nH]c3c(c2c1)CNCC3,216 to 218
4,OC(CCl)CNCc1ccccc1 (configuration not stated),63 to 65
5,O=S(=O)(Nc1nccs1)c1ccccc1,169 to 171
6,O=C(O)CCc1ccc2ccccc2n1,107 to 109
7,COc1ccc2[nH]cc(C3CCNCC3)c2c1,169 to 171
8,CC(NC(=O)OC(C)(C)C)C(N)=NO (configuration not stated),139 to 141
9,Nc1ccn(Cc2ccccc2)n1,56 to 58
10,Nc1ccccc1NC(=O)c1ccccc1I,189 to 191
11,CS(=O)(=O)N1CCCC(Cl)C1 (configuration not stated),54 to 56
12,Cc1ccc(CC(=O)NO)cc1,155 to 157
13,COc1cc2c(cc1NC(=O)OCC(F)(F)F)oc1ccccc12,122 to 124
14,ClCc1csc(COc2ccc(Cl)cc2)n1,75 to 77
15,NCCNC(=O)c1ccc(Br)cc1,38 to 40
16,COc1ccc(C(=O)c2cccc3ccccc23)cc1,95 to 97
17,O=C(O)c1cc(C2CC2)nc2onc(-c3ccccc3)c12,213 to 215
18,Nc1ccc(-n2nccn2)nc1,82 to 84
